Data: patent publication US9150537B2, “Bicyclic compound and use thereof for medical purposes” (ONO PHARMACEUTICAL CO., LTD., priority 2011, dated 2015)

Key:
[1] = molecular target: T1, mouse EP2 receptor (Mus musculus, UniProt Q62053); assay: Measurement of EP2 agonist activity (cAMP concentration) in EP2-CHO cells; format: cell-based; settings: cAMP production, read-out: Agonist activity on various prostanoid receptors: EC50 value, EP2
T1 construct: expressed in transfected cells; host or cells: CHO (EP2-CHO)
T1 sequence (Q62053 whole entry): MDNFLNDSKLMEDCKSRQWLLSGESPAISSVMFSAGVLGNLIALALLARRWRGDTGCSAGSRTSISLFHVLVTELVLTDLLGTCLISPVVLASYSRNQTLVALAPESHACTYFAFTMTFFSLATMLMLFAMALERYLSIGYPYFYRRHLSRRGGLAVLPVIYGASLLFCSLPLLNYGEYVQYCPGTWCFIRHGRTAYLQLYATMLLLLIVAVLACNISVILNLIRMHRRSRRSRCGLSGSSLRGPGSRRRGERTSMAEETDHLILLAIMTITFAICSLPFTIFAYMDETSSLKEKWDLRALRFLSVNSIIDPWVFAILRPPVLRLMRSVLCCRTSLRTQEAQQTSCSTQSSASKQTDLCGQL
Excerpt: (§1) (1-1) Measurement of Agonist Activity on Various Mouse Prostanoid Receptors
(§2) Using CHO cells (FP-CHO, EP2-CHO, EP4-CHO and IP-CHO, respectively) in which various mouse prostanoid receptors were forcibly expressed, respectively, agonist activity of test compounds on various prostanoid receptors was studied employing an intracellular calcium concentration regarding FP, and an intracellular cyclic AMP (hereinafter, abbreviated as cAMP) production amount regarding IP, EP2 and EP4 as an index.
(§3) The test compound and a control substance (PGE2, PGF2α, and iroprost) were dissolved with dimethyl sulfoxide (DMSO) to prepare a 10 mmol/L solution. Regarding the prepared 10 mmol/L solution, upon use, the 10 mmol/L solution was thawed, stepwisely-diluted using DMSO, and diluted with a buffer solution for measurement or a buffer solution for measurement 2, which was subjected to an experiment.
(§4) Cells forcibly expressing various mouse prostanoid receptors were standing-cultured at 37° C. in the presence of 5% CO2 using an α-MEM medium (Sigma) (for culturing FP-CHO, EP2-CHO and EP4-CHO) containing inactivated (56° C., 30 minutes) 9.8 vol % dialysed-FBS (Invitrogen) and penicillin-streptomycin-glutamine (GIBCO-BRL), or nucleic acid-containing α-MEM (Sigma) (for culturing IP-CHO) containing inactivated (56° C., 30 minutes) 9.8 vol % dialysed-FBS (Invitrogen) and penicillin-streptomycin glutamine (Invitrogen). Subculturing was performed by the following method.
(§5) The medium was removed, and washed with a phosphate-buffered physiological saline not containing Ca^2+ and Mg^2+ once. A suitable amount of trypsin-EDTA (Invitrogen) was added, this was incubated at 37° C. for about 3 minutes, cells were peeled, and a medium having a volume which is 10-fold a volume of trypsin-EDTA was added to stop an enzymatic reaction. After cells were recovered (120 g) into a centrifuging tube, and centrifuged at room temperature for 3 minutes, the supernatant was removed. Cells were suspended in a suitable amount of a medium, and seeded in a culturing flask. […]

[2] = molecular target: T2, mouse EP4 receptor (Mus musculus, UniProt P32240); assay: Measurement of EP4 agonist activity (cAMP concentration) in EP4-CHO cells; format: cell-based; settings: cAMP production, read-out: Agonist activity on various prostanoid receptors: EC50 value, EP4
T2 construct: expressed in transfected cells; host or cells: CHO (EP4-CHO)
T2 sequence (P32240 whole entry): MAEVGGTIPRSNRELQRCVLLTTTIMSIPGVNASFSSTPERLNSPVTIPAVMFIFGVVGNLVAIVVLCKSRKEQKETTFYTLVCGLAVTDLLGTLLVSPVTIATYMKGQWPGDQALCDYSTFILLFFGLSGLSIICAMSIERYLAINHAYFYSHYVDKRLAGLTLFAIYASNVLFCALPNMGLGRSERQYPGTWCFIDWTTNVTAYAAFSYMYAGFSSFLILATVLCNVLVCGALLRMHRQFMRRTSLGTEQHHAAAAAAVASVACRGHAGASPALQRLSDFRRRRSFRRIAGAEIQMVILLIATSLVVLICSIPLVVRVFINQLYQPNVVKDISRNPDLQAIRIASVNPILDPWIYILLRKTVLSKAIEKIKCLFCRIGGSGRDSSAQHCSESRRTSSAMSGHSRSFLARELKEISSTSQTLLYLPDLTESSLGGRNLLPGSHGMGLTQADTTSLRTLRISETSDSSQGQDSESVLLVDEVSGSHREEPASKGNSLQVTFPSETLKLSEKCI
Excerpt: as §1, §2, §3, §4, §5

[3] = molecular target: T3, mouse FP receptor (Mus musculus, UniProt P43117); assay: Measurement of FP agonist activity (intracellular calcium concentration) in FP-CHO cells; format: cell-based; settings: read-out: Agonist activity on various prostanoid receptors: EC50 value, FP
T3 construct: expressed in transfected cells; host or cells: CHO (FP-CHO)
T3 sequence (P43117 whole entry): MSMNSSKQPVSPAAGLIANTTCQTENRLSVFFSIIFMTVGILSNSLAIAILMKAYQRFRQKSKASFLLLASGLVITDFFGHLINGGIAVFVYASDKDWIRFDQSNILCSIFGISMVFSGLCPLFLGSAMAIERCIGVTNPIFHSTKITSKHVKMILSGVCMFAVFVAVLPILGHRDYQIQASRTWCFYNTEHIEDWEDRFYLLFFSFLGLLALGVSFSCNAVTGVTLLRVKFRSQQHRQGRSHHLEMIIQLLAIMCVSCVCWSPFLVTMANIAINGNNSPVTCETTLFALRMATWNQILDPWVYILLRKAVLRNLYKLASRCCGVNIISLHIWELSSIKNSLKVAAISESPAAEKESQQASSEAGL
Excerpt: as §1, §2
as §3, with “experiment. […]” for “experiment.”
The 96-well UV plate was set in a fluorescent spectral photometer (FDSS-3000, Hamamatsu Photonics K.K.), and an intracellular calcium concentration was measured. […]

[4] = molecular target: T4, mouse IP receptor (Mus musculus, UniProt P43252); assay: Measurement of IP agonist activity (cAMP concentration) in IP-CHO cells; format: cell-based; settings: cAMP production, read-out: Agonist activity on various prostanoid receptors: EC50 value, IP
T4 construct: expressed in transfected cells; host or cells: CHO (IP-CHO)
T4 sequence (P43252 whole entry): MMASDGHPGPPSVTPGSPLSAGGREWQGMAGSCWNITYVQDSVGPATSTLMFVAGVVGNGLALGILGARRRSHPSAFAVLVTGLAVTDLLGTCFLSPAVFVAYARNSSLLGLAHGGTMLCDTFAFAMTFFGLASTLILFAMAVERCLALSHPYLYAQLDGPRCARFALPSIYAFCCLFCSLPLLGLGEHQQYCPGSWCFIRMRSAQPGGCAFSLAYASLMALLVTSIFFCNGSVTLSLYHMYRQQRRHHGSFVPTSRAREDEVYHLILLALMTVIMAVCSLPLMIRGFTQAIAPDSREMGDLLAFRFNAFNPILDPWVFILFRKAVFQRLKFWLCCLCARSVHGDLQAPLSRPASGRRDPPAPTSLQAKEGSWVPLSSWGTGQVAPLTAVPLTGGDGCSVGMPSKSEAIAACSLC
Excerpt: as §1, §2
as §3, with “experiment. […]” for “experiment.”

[5] = test system: male dog (TOYO Beagle); assay: Intraocular pressure lowering action in dog after ocular instillation; format: in vivo; settings: ocular instillation 30 μL, maximum among 2, 4, 6, 8, 24 hours, dose 30 μg/mL Example 16 (1), 50 μg/mL latanoprost
Description: (2-1) Intraocular Pressure Lowering Action
To one eye of a male dog (TOYO Beagle) which had been sufficiently acclimated in advance was ocular-instilled 30 μL of the compound of Example 16 (1) which had been adjusted with a base (containing citrate buffer pH 6.5, 0.5% polysorbate 80, 1% propylene glycol, 0.01% benzalkonium chloride) to 0.003% (w/v), respectively. The other eye was not treated. As a positive control compound, latanoprost which is the known compound was used.
Thereafter, an ocular surface anesthetic (Benoxil eye drops 0.4%, Santen Pharmaceutical Co., Ltd.) was subjected to ocular instillation to locally anesthetize eyes, and an intraocular pressure of each test compound before ocular instillation and after 2, 4, 6, 8, and 24 hours from ocular instillation was measured. An intraocular pressure was measured using a pneumatic applanation flat tonometer (Model 30 Classic, REICHERT). An intraocular pressure lowering rate (%) was calculated by the following equation.

[6] = test system: male rabbit (NewZealandWhite); assay: Aqueous humor protein concentration in rabbit after ocular instillation; format: in vivo; settings: ocular instillation 30 μL, 1000 μg/mL, 0 to 8 hours (FIG. 2)
Description: (§6) (2-2) Assessment of Ocular Stimulating Property and Aqueous Humor Protein Concentration
To one eye of a male rabbit (NewZealandWhite, 2.0 to 3.0 kg) was ocular-instilled 30 μL of the compound of Example 16 (1) which had been adjusted to 0.1% (w/v) with a base (containing citrate buffer pH 6.5, 0.5% polysorbate 80, 1% propylene glycol, 0.01% benzalkonium chloride), respectively. Thereafter, an aqueous humor in anterior chamber after 0, 1, 2, 4, 6 and 8 hours from ocular instillation was collected, and a protein concentration in the humor was measured. As comparative compounds, the aforementioned methyl ester of the compound of Example 12 described in Patent Literature 2 (i.e. compound of Example 10 described in Patent Literature 2) (hereinafter, abbreviated as Comparative Compound C in some cases) and the aforementioned methyl ester of the Comparative Compound B (i.e. optically active body (2S isomer) of the compound of Example 1 (F) described in Patent Literature 1) (hereinafter, abbreviated as Compound D in some cases) were used.
(§7) Regarding any test compound, a dose of 1000 μg/mL was administered and action of each active body was assessed.

[7] = test system: male rabbit (NewZealandWhite); assay: Assessment of ocular stimulating property (Draize score) in rabbit; format: in vivo; settings: ocular instillation 30 μL, 1000 μg/mL, observed 0 to 8 hours (FIG. 1)
Description: as §6
To one eye of a male rabbit (NewZealandWhite, 2.0 to 3.0 kg) was ocular-instilled 30 μL of the compound of Example 16 (1) which had been adjusted to 0.1% (w/v) with a base (containing citrate buffer pH 6.5, 0.5% polysorbate 80, 1% propylene glycol, 0.01% benzalkonium chloride), respectively. Thereafter, an aqueous humor in anterior chamber after 0, 1, 2, 4, 6 and 8 hours from ocular instillation was collected, and a protein concentration in the humor was measured. […]
Observation of the ocular general state was performed after 0, 1, 2, 4, 6 and 8 hours from ocular instillation, and visual remark of cornea, iris, and conjunctiva was observed according to determination criteria of the Draize method. A total of points of the resulting assessment points of each item (=A1×B1×5+A2×5+(A3+B3+C3)×2) was assessed as a Draize score. […]
as §7

[8] = test system: male monkey (crab-eating monkey); assay: Intraocular pressure lowering action in monkey under consciousness; format: in vivo; settings: conscious crab-eating monkey, ocular instillation 30 μL, 10 μg/mL Comparative Compound C, 30 μg/mL Example 16 (1)
Description: (2-3) Intraocular Pressure Lowering Action in Monkey Under Consciousness
To a left eye of a male monkey (crab-eating monkey) under consciousness was ocular instillation-administered 30 μL of a solution obtained by adjusting a test substance using the same base as that described above and, to a right eye was ocular instillation-administered 30 μL of a solution of only a base as a control, respectively. An intraocular pressure after administration was measured with time from administration initiation to after 24 hours. Upon measurement of an intraocular pressure, a crab-eating monkey was fixed on a monkey chair, and the monkey was anesthetized by ocular instillation-administering an ocular surface anesthetic (Benoxil eye drops 0.4% Santen Pharmaceutical Co., Ltd.). After mounting of a blepharostat (Handaya Co., Ltd.), an intraocular pressure of both eyes was measured (5 to 8 examples per group) using a pneumatic applanation flat tonometer (Model 30 Classic, REICHERT). A difference in an intraocular pressure value between control eyes and eyes to which a test substance had been administered, was calculated as an intraocular pressure lowering rate using the following equation, and sustainability of intraocular eye lowering action was assessed using a maximum intraocular pressure lowering rate during measurement and an intraocular pressure lowering rate after 24 hours. […]

| EC50 [1] [nM] | EC50 [2] [nM] | EC50 [3] [nM] | EC50 [4] [nM] | Compound | Maximum of intraocular pressure lowering rate [5] [%] | Action on protein concentration in aqueous humor [6] | Classification of ocular stimulating property from maximum of the Draize score [7] | Intraocular pressure lowering rate after 24 hours ([8]; 24 hours) [%] | Maximum intraocular pressure lowering rate [8] [%] |
| --- | --- | --- | --- | --- | --- | --- | --- | --- | --- |
| > 100000 | 6100 | – | – | O=C(O)CCC[C@H]1CC[C@@H]2[C@@H](/C=C/[C@@H](O)COc3ccccc3)[C@H](O)C[C@@H]2O1 [Comparative Compound A] | – | – | – | – | – |
| 22 | 380 | 8.9 | 890 | CCCCC[C@H](O)/C=C/[C@@H]1[C@H]2CC[C@H](CCCC(=O)O)S[C@H]2C[C@H]1O [Comparative Compound B, 4-{(2S,4aR,5R,6R,7aS)-6-hydroxy-5-[(1E,3S)-3-hydroxy-1-octen-1-yl]octahydrocyclopenta[b]thiopyran-2-yl}butanoic acid, reference compound] | – | – | – | – | – |
| > 100000 | > 100000 | 3.4 | 6100 | O=C(O)CCC[C@H]1CC[C@@H]2[C@@H](/C=C/[C@@H](O)COc3ccccc3)[C@H](O)C[C@@H]2S1 [Example 15, 4-{(2S,4aR,5R,6R,7aS)-6-hydroxy-5-[(1E,3R)-3-hydroxy-4-phenoxy-1-buten-1-yl]octahydrocyclopenta[b]thiopyran-2-yl}butanoic acid] | – | – | – | – | – |
| – | – | – | – | CC(C)OC(=O)CCC[C@H]1CC[C@@H]2[C@@H](/C=C/[C@@H](O)COc3ccccc3)[C@H](O)C[C@@H]2S1 [Example 16 (1), 2-Propanyl 4-{(2S,4aR,5R,6R,7aS)-6-hydroxy-5-[(1E,3R)-3-hydroxy-4-phenoxy-1-buten-1-yl]octahydrocyclopenta[b]thiopyran-2-yl}butanoate] | 34.2 | no action of raising a protein concentration in an aqueous humor | non-stimulating substance (A Draize score of 0 or more and 5 or less was a non-stimulating substance) | 23.1 ± 2.7 | 25.3 ± 2.4 |
